The target in one assay is T1, PNPO (Homo sapiens, UniProt Q9NVS9).
T1 construct: Flag; expressed in transfected cells; host or cells: HEK 293T, transient transfection, soluble lysate
T1 sequence (Q9NVS9 1-261): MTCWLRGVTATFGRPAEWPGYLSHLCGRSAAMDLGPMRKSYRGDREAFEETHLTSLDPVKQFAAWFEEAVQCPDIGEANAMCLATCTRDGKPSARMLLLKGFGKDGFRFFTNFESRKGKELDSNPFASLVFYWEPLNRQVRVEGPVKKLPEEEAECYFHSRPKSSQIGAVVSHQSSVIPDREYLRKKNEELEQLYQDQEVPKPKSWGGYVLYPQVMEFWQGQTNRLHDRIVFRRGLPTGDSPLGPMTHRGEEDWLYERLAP
In words: PNPO functional assay. The note with it: substrate assay, WT; read-out: IC50, blockade of PNPO catalytic activity. In kind it is biochemical. On the procedure: PNPO functional assay. 80 μl of soluble proteome (total protein concentration: 1 mg ml^−1) from HEK 293T cells expressing PNPO (WT or K100R mutant) or mock transfected cells (empty vector; negative control) were added into a clear bottom 384 well plate. For compound treatments, 1 μl of the inhibitor (80× solution in DMSO) or 1 μl of DMSO (positive control) were added and the reactions were incubated for 1 h at room temperature. 10 μl of 0.1 M Tris in PBS were added and the reaction was started by addition of 10 μl 5 mM pyridoxine phosphate (PNP) in water (PNP was prepared as described in Argoudelis, C. J., “Preparation of crystalline pyridoxine 5′-phosphate and some of its properties,” J. Agr. Food Chem. 34, 995-998 (1986)). The absorbance of the Schiff Base between pyridoxal phosphate and Tris was measured at 388 nm every minute for 30 min.
Calculation of relative activity or percent inhibition. For PNPO, PFKP, NUDT2 and G6PD, the slope of the linear regression of the linear portion of the absorbance or fluorescence over time was used as measure their activity. Apparent activity was calculated relative to the WT. Percent inhibition was calculated relative to the positive and negative control and used to calculate IC50 values by nonlinear regression analysis from a dose-response curve generated using GraphPad Prism 7.

Assay [1] addresses T2, SIN3A-interacting proteins MAX, MNT and MXI1 (Homo sapiens, UniProt Q96ST3).
T2 construct: expressed in transfected cells; host or cells: SILAC HEK 293T
In words: ABPP-SILAC IP experiment for SIN3A interacting proteins. In kind it is binding. The note with it: 21 50 μM. On the procedure: (§1) ABPP-SILAC IP experiment for SIN3A interacting proteins. All SILAC experiments were performed using the isotopically labeled human HEK 293T cell line generated by 8 passages in either light (100 μg ml^−1 each of L-arginine and L-lysine) or heavy (100 μg ml^−1 each of [^13C6^15N4]L-arginine and [^13C6^15N2]L-lysine) SILAC DMEM media (Thermo Scientific) supplemented with 10% dialyzed fetal calf serum, penicillin, streptomycin and glutamine. 2×10^5 SILAC HEK 293T cells were plated in 6 cm dishes in either heavy or light labeled SILAC media. Cells were transfected the next day with 1 μg of FLAG-GFP, or FLAG-SIN3A wild type, K155R, or K155W constructs as indicated. After 48 hours, cells were rinsed with ice-cold PBS and suspended in cold IP-lysis buffer (0.5% Chaps, 50 mM Hepes pH 7.4, 150 mM NaCl, and EDTA-free protease inhibitors and phosphatase inhibitors (Roche)) by gentle sonication. Samples were rotated for 30 minutes at 4° C. to complete lysis. For compound treatment experiments, 50 μM (final concentration) of 21 was added to samples prior to rotation. Samples were clarified by centrifugation for 1 minute at 16,000 rpm, and protein concentration was measured using the DC Protein Assay kit (Bio-Rad). Samples were normalized to 2 mg/mL by addition of cold IP-lysis buffer. 25 μL of anti-FLAG-M2 beads was added to the clarified supernatant and incubated for 3 h while rotating at 4° C. Beads were washed three times with cold PBS, and then eluted with 40 μL of […] for 10 min at 65° C. […] LC-MS spectra were collected and analyzed as described above with the following modifications. […] A list of all proteins enriched preferentially by SIN3A was generated from a comparison of SIN3A wild type vs GFP immunoprecipitations, including all proteins with at least two distinct quantified peptide sequences and a median ratio greater than or equal to 5 (R>5). […] Furthermore, if there were at least two quantified unique peptides, the median ratio of each protein's unique peptides (not occurring in any other human protein) were reported.

The target in another assay is T3, TGIF1-SIN3A interaction (Homo sapiens, UniProt Q96ST3).
T3 construct: expressed in transfected cells; host or cells: SILAC HEK 293T
The assay is described as above. The assay is classed as binding. The note with it: 21 50 μM. On the procedure:
as §1

Another assay addresses T4, TGIF2-SIN3A interaction (Homo sapiens, UniProt Q96ST3).
T4 construct: expressed in transfected cells; host or cells: SILAC HEK 293T
Described as above. In kind it is binding. The note with it: 21 50 μM. On the procedure:
as §1

T4 sequence (Q96ST3 1-400): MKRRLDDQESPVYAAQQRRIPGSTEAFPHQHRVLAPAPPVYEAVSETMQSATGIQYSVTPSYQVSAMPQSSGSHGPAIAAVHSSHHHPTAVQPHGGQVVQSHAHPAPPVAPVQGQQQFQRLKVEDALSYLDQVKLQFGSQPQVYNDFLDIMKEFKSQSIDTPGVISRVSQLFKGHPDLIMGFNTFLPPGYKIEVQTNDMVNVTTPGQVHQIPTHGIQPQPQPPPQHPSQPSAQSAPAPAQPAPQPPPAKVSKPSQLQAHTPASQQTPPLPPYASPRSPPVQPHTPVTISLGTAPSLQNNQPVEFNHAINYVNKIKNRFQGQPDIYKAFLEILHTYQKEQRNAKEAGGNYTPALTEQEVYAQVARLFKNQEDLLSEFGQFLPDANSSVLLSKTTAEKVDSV
T2 sequence (Q96ST3 1-400): as above
T3 sequence (Q96ST3 1-400): as above

In general, IC50 refers to the concentration needed to halve the response being measured. Consider `O=C(CCc1cn(-c2ccccc2)nc1-c1ccccc1)Oc1c(F)c(F)c(F)c(F)c1F` [fragment 19, Pentafluorophenyl 3-(1,3-diphenyl-1H-pyrazol-4-yl)propanoate], for which the IC50 on PNPO is approximately 5 µM.
Consider `O=C(Oc1c(F)c(F)c(F)c(F)c1F)c1cc(C(F)(F)F)cc(C(F)(F)F)c1` [fragment 21, Pentafluorophenyl 3,5-bis(trifluoromethyl)benzoate], for which, in assay [1], the “effect on co-immunoprecipitation of MAX, MNT and MXI1 with WT-SIN3A” value is “not affected”. In addition, the “effect on TGIF1-SIN3A interaction” value on TGIF1-SIN3A interaction was “strongly blocked the TGIF1-SIN3A interaction”. At TGIF2-SIN3A interaction, the “effect on TGIF2-SIN3A interaction” value is “marginal effect”.

For the origin of these results see patent US20210255193A1, “LYSINE REACTIVE PROBES AND USES THEREOF” (The Scripps Research Institute, priority 2017, published 2021).
